Data set [1] relates to alopecia. Description: composition directly injected into the scalp on one side of the head, other side left untreated. In kind it is in vivo, human. The source says:
(§1) patient one is diagnosed with alopecia. A composition comprising the calcium channel blocker nifedipine is directly injected into the scalp on one side of the head while the side is left untreated. […] patient one is diagnosed with alopecia. A composition comprising the ACE inhibitor enalapril is directly injected into the scalp on one side of the head while the side is left untreated. […] patient one is diagnosed with alopecia. A composition comprising the angiotensin receptor blocker losartan is directly injected into the scalp on one side of the head while the side is left untreated. […] patient two is diagnosed with alopecia. A composition comprising the calcium channel blocker nifedipine is directly injected into the scalp on one side of the head while the side is left untreated. […] patient two is diagnosed with alopecia. A composition comprising the ACE inhibitor enalapril is directly injected into the scalp on one side of the head while the side is left untreated. […] patient two is diagnosed with alopecia. A composition comprising the angiotensin receptor blocker losartan is directly injected into the scalp on one side of the head while the side is left untreated.

Data set [2] relates to alopecia. Description: composition directly applied to the scalp on one side of the head, other side left untreated. It is filed as in vivo, human.
Description: as §1, with “is directly applied to the scalp” for “is directly injected into the scalp”, “while the other side is” for “while the side is”

Data set [3] concerns female pattern hair loss. The following applies: women, facial hair growth during treatment; cited from earlier work.
Data set [4] concerns androgenic alopecia. Particulars: cited from earlier work.

Where two headings read alike, the source gives them in different places.

As to `CCOC(=O)[C@H](CCc1ccccc1)N[C@@H](C)C(=O)N1CCC[C@H]1C(=O)O` [enalapril], the “symptoms of alopecia, treated side versus untreated side” value in data set [1] (patient one), in data set [1] (patient two), in data set [2] (patient one) and in data set [2] (patient two) was “reduced symptoms of alopecia” each time.

For the compound `CCCCc1nc(Cl)c(CO)n1Cc1ccc(-c2ccccc2-c2nn[nH]n2)cc1` [losartan], the “symptoms of alopecia, treated side versus untreated side” value in data set [1] (patient one), in data set [1] (patient two), in data set [2] (patient one) and in data set [2] (patient two) was “reduced symptoms of alopecia” each time.

As for `Nc1cc(N2CCCCC2)nc(N)[n+]1[O-]` [Minoxidil], the “time for facial hair growth side effect to resolve” value in data set [3] is “at least 4 months”.

Consider `CC(C)(C)NC(=O)[C@H]1CC[C@H]2[C@@H]3CC[C@H]4NC(=O)C=C[C@]4(C)[C@H]3CC[C@]12C` [Finasteride], for which the “hair count higher than baseline as compared to placebo” value is 24.3% in data set [4] (after 4 years) and 9.42% in data set [4] (after one year of treatment).

The record behind these values is patent US20210346378A1, “METHOD TO PREVENT AND TREAT ALOPECIA BY CALCIUM CHANNEL BLOCKERS, ANGIOTENSIN CONVERTING ENZYME INHIBITORS, AND ANGIOTENSIN RECEPTOR BLOCKERS” (priority 2019, published 2021).
